Here are results for 18 molecules from PubChem BioAssay (NCI).

Values joined by “and” are separate entries in the source; they are usually repeats but may differ in a detail not shown here. Equal values may be shown once.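 Where inhibition never reached the appropriate level, the endpoint shown equals the highest concentration tested. Otherwise, values were interpolated linearly from a five-concentration, 48-hour dose response in 96-well plates. At the GI50, growth is halved. TGI is the concentration that stops growth completely.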

Some test systems named below: SR leukemia; OVCAR-5 ovarian; A549 NSCLC; HCT-116 colon; HCT-15 colon.
Common to all, as to test: inhibition of tumour cell growth, NCI panel, 48 h

Turning to `COC(=O)[C@@H](C)C[C@H](Cc1ccccc1)NC(=O)c1csc([C@@H](C[C@H](C(C)C)N(C)C(=O)[C@@H](NC(=O)[C@H]2CCCCN2C)C2CCCCC2)OC(C)=O)n1`, the GI50 is 0.000274 µM and 0.0025 µM in the assay on SR leukemia; 0.00685 µM and 0.0025 µM in the assay with OVCAR-5 ovarian; 0.0022 µM and 0.0025 µM with A549 NSCLC; 0.000325 µM and 0.0025 µM with HCT-116 colon; 0.00102 µM and 0.0025 µM with HCT-15 colon. Also, the TGI with SR leukemia is 2.9 µM; in the assay with OVCAR-5 ovarian, > 25 µM; in the assay with A549 NSCLC, > 25 µM; with HCT-116 colon, 0.00325 µM; in the assay with HCT-15 colon it was > 25 µM.
Consider `CN(CCO)c1ccc(N2Cc3ccccc3OC3=C2C(=O)c2c(O)ccc(O)c2C3=O)cn1`, for which the GI50 was 0.325 µM in the assay with OVCAR-5 ovarian, 2.08 µM in the assay on A549 NSCLC, 0.0467 µM in the assay on HCT-116 colon and 0.127 µM in the assay on HCT-15 colon. Besides, the TGI was determined as 0.997 µM with OVCAR-5 ovarian, 4.9 µM in the assay with A549 NSCLC, 0.223 µM in the assay on HCT-116 colon and 0.484 µM with HCT-15 colon.
Regarding `NCCSc1nc(-c2ccccc2)c(-c2ccccc2)o1`, the TGI in the assay on SR leukemia, in the assay with OVCAR-5 ovarian, in the assay with A549 NSCLC, in the assay on HCT-116 colon and with HCT-15 colon was > 100 µM each time.
Regarding `CN(C)CCNC(=O)c1ccc2nc3c(nc2c1)C(=O)c1ccccc1-3`, the TGI with SR leukemia was 54.7 µM; with OVCAR-5 ovarian, > 100 µM; with A549 NSCLC, > 100 µM; in the assay with HCT-116 colon, > 100 µM; in the assay with HCT-15 colon, > 100 µM.
On to `CCn1c(=O)c2c(=O)c3c4c(oc3oc2c2ccccc21)C(=O)c1ccccc1C4=O`, for which the GI50 in the assay with OVCAR-5 ovarian, with A549 NSCLC and in the assay on HCT-15 colon was > 100 µM throughout. Moreover, the TGI in the assay on OVCAR-5 ovarian, in the assay on A549 NSCLC, in the assay on HCT-116 colon and in the assay with HCT-15 colon was > 100 µM throughout.
As for `NC(=O)OCCn1cc(-c2nc(-c3c[nH]c4ncccc34)cs2)c2ccccc21`, the GI50 with SR leukemia was 1.08 µM; in the assay on OVCAR-5 ovarian it was 2.21 µM; in the assay with A549 NSCLC, 2.34 µM; in the assay with HCT-116 colon it was 1.72 µM; in the assay on HCT-15 colon it was 1.92 µM. For the same molecule, the TGI in the assay on SR leukemia was 7.05 µM; in the assay on OVCAR-5 ovarian, 43.8 µM; in the assay on A549 NSCLC it was 23 µM; in the assay on HCT-116 colon, 5.02 µM; in the assay on HCT-15 colon, > 100 µM.
As to `COc1ccc(-c2coc3c4c(ccc3c2=O)OCO4)cc1OC`, the TGI in the assay on SR leukemia, in the assay with OVCAR-5 ovarian, in the assay on A549 NSCLC, in the assay on HCT-116 colon and with HCT-15 colon was > 100 µM throughout.
Take `COc1cc(C(=O)N2CCN(c3ncccn3)CC2)c(N)cc1OCc1ccccc1`: the GI50 was > 100 µM in the assay on SR leukemia; 29.6 µM in the assay on OVCAR-5 ovarian; > 100 µM in the assay on A549 NSCLC; > 100 µM in the assay on HCT-116 colon; > 100 µM in the assay on HCT-15 colon. Also, the TGI with SR leukemia, in the assay on OVCAR-5 ovarian, in the assay with A549 NSCLC, in the assay with HCT-116 colon and with HCT-15 colon was > 100 µM in each case.
For `c1ccc2c(c1)c1c(c3ccccc32)CN2CCCC2C1` (stereo unspecified), the TGI in the assay on SR leukemia is > 100 µM; with OVCAR-5 ovarian, > 43.4 µM; in the assay on A549 NSCLC, 17.9 µM; with HCT-116 colon it was 14.7 µM; in the assay on HCT-15 colon, > 70.4 µM.
As to `O=CN1CCN(CC(O)CN2CCCCC2)CC1` (stereo unspecified), the TGI in the assay on SR leukemia, with OVCAR-5 ovarian, in the assay with A549 NSCLC, in the assay on HCT-116 colon and in the assay with HCT-15 colon was > 100 µM each time.
`Cc1cc(C)c(/C=C2\C(=O)Nc3ccc(NC(=O)CCCCCCC(=O)NO)cc32)[nH]1`: the GI50 with SR leukemia was 0.416 µM; with OVCAR-5 ovarian it was 1.09 µM; in the assay on A549 NSCLC it was > 100 µM; in the assay with HCT-116 colon, 0.3 µM; with HCT-15 colon it was > 100 µM. In addition, the TGI in the assay with SR leukemia was > 100 µM; in the assay with OVCAR-5 ovarian, > 54.1 µM; in the assay on A549 NSCLC, > 100 µM; in the assay on HCT-116 colon, 4.86 µM; in the assay with HCT-15 colon it was > 100 µM.
Regarding `O=C(Nc1ccc(F)cc1)c1cc(S(=O)(=O)Nc2nc3ccccc3o2)c(SCc2ccccc2)cc1Cl`, the GI50 with OVCAR-5 ovarian is 19.7 µM; with A549 NSCLC, 18.3 µM; with HCT-116 colon it was 17.9 µM; in the assay on HCT-15 colon, 15.8 µM. The TGI turned out to be 35.1 µM with OVCAR-5 ovarian, 38.4 µM with A549 NSCLC, 31.7 µM in the assay on HCT-116 colon and 30.1 µM with HCT-15 colon.
`O=C1NC(=O)C(c2cccc([N+](=O)[O-])c2)=C1Nc1cc(Cl)c(O)c(Cl)c1`: the GI50 in the assay on OVCAR-5 ovarian, in the assay on A549 NSCLC, in the assay with HCT-116 colon and with HCT-15 colon was > 25 µM in each case. Also, the TGI in the assay with OVCAR-5 ovarian, in the assay with A549 NSCLC, with HCT-116 colon and in the assay with HCT-15 colon was > 25 µM each time.
`[N-]=[N+]=Nc1cc(=O)n2c3c(cccc13)CCC2`: the TGI in the assay with SR leukemia, in the assay with A549 NSCLC, in the assay with HCT-116 colon and in the assay with HCT-15 colon was > 100 µM throughout.
On to `COc1cc2c(c(OC)c1OC)-c1ncc3cc4c(cc3c1C2)OCO4`, for which the GI50 with OVCAR-5 ovarian was > 100 µM; in the assay on A549 NSCLC it was 21.1 µM; in the assay with HCT-116 colon it was 18.8 µM; with HCT-15 colon, 10.8 µM. The TGI was > 100 µM with OVCAR-5 ovarian, 97.9 µM in the assay on A549 NSCLC, 48.3 µM in the assay on HCT-116 colon and > 100 µM with HCT-15 colon.
As for `CSc1ccc2c(c1)C(=O)c1c-2n(CCCBr)c(=O)c2cc([N+](=O)[O-])ccc12`, the GI50 was > 100 µM with OVCAR-5 ovarian, 7.61 µM in the assay with A549 NSCLC, 2.22 µM in the assay with HCT-116 colon and 47.2 µM with HCT-15 colon. Besides, the TGI with OVCAR-5 ovarian, in the assay with A549 NSCLC, with HCT-116 colon and in the assay on HCT-15 colon was > 100 µM each time.
Consider `[N-]=[N+]=Nc1cc(=O)[nH]nc1-c1ccccc1`, for which the TGI in the assay with SR leukemia, in the assay on A549 NSCLC, in the assay with HCT-116 colon and in the assay on HCT-15 colon was > 100 µM each time.
For the molecule `CN1C(=O)/C(=C/c2c(Cl)n(C)c3ccccc23)c2ccccc21`, the GI50 is 3.61 µM and 1.85 µM in the assay with OVCAR-5 ovarian; 7.78 µM with A549 NSCLC; 2.69 µM and 1.89 µM in the assay on HCT-15 colon. For the same molecule, the TGI turned out to be 3.25 µM with OVCAR-5 ovarian, 1.39 µM in the assay with HCT-116 colon and 3.56 µM in the assay on HCT-15 colon.
